Measurements as given in US20100317524A1, “Sulfonylureas” (Bayer CropScience AG, priority 2005, published 2010).

Columns and labels:
[1] = system: weed plants such as Sinapis alba, Chrysanthemum segetum, Avena sativa, Stellaria media, Echinochloa crus-galli, Lolium multiflorum, Setaria viridis, Abutilon …; assay: Pre-emergence effect on weeds (greenhouse pot test, visual scoring); assay type: in vivo; settings: applied pre-emergence at a rate of 0.3 kg or less of active substance per hectare; visual scoring after 3 to 4 weeks vs untreated controls
Source text: Seeds or sections of rhizome from monocot and dicot weed plants were laid out in sandy loam soil in cardboard pots, and covered with soil. The compounds of the invention, formulated as wettable powders or emulsifiable concentrates, were then applied, in the form of aqueous suspensions or emulsions, at various dosages, onto the surface of the covering earth, at an application rate of 600 to 800 l of water per hectare (converted). Following the treatment, the pots were placed in a greenhouse and maintained under good growth conditions for the weeds. Visual scoring of the plant damage or emergence damage was made when the test plants had emerged, after a test time of 3 to 4 weeks, in comparison to untreated controls.

[2] = system: weed plants such as Sinapis alba, Echinochloa crus-galli, Lolium multiflorum, Chrysanthemum segetum, Setaria viridis, Abutilon theophrasti, Amaranthus …; assay: Post-emergence effect on weeds (greenhouse pot test, visual scoring); assay type: in vivo; settings: applied post-emergence (three-leaf stage) at a rate of 0.3 kg or less of active substance per hectare; visual scoring after about 3 to 4 weeks vs untreated controls
Experimental: Seeds or sections of rhizome from monocot and dicot broadleaf weeds were laid out in sandy loam soil in plastic pots, covered with earth, and cultivated in a greenhouse under good growth conditions. Three weeks after sowing, the test plants were treated at the three-leaf stage. The compounds of the invention, formulated as wettable powders or as emulsion concentrates, were sprayed in different dosages onto the green parts of the plants, at an application rate of 600 to 800 l of water per hectare (converted). After the test plants had stood in the greenhouse under optimum growth conditions for a period of about 3 to 4 weeks, the effect of the products was scored visually in comparison to untreated controls.

Cc1cc(C)nc(NC(=O)NS(=O)(=O)c2c(I)cccc2OCC2CC2)n1 [Compound 1.237]
herbicidal action against weed plants, pre-emergence [1]: very good herbicidal action | herbicidal action against weed plants, post-emergence [2]: very good herbicidal action

CCCCOc1cccc(I)c1S(=O)(=O)NC(=O)Nc1nc(C)cc(C)n1 [Compound 1.554]
herbicidal action against weed plants, pre-emergence [1]: very good herbicidal action | herbicidal action against weed plants, post-emergence [2]: very good herbicidal action

Cc1cc(C)nc(NC(=O)NS(=O)(=O)c2c(F)cccc2I)n1 [Compound 1.003]
herbicidal action against weed plants, pre-emergence [1]: very good herbicidal action | herbicidal action against weed plants, post-emergence [2]: very good herbicidal action

CCCCOc1cccc(I)c1S(=O)(=O)NC(=O)Nc1nc(OC)nc(OC)n1 [Compound 1.556]
herbicidal action against weed plants, pre-emergence [1]: very good herbicidal action | herbicidal action against weed plants, post-emergence [2]: very good herbicidal action

CSc1cccc(I)c1S(=O)(=O)NC(=O)Nc1nc(C)cc(C)n1 [Compound 1.550]
herbicidal action against weed plants, pre-emergence [1]: very good herbicidal action | herbicidal action against weed plants, post-emergence [2]: very good herbicidal action

COc1cc(OC)nc(NC(=O)NS(=O)(=O)c2c(I)cccc2OS(=O)(=O)N(C)C)n1 [Compound 1.507]
herbicidal action against weed plants, pre-emergence [1]: very good herbicidal action | herbicidal action against weed plants, post-emergence [2]: very good herbicidal action

COc1nc(C)nc(NC(=O)NS(=O)(=O)c2c(I)cccc2OCC2CC2)n1 [Compound 1.233]
herbicidal action against weed plants, pre-emergence [1]: very good herbicidal action | herbicidal action against weed plants, post-emergence [2]: very good herbicidal action

COc1cccc(I)c1S(=O)(=O)NC(=O)Nc1nc(C)cc(C)n1 [Compound 1.154]
herbicidal action against weed plants, pre-emergence [1]: very good herbicidal action | herbicidal action against weed plants, post-emergence [2]: very good herbicidal action

COc1nc(C)nc(NC(=O)NS(=O)(=O)c2c(F)cccc2I)n1 [Compound 1.002]
herbicidal action against weed plants, pre-emergence [1]: very good herbicidal action | herbicidal action against weed plants, post-emergence [2]: very good herbicidal action

COc1cc(OC)nc(NC(=O)NS(=O)(=O)c2c(I)cccc2OC)n1 [Compound 1.146, N-{[(4,6-Dimethoxypyrimidin-2-yl)amino]carbonyl}-2-iodo-6-methoxybenzenesulfonamide]
herbicidal action against weed plants, pre-emergence [1]: very good herbicidal action | herbicidal action against weed plants, post-emergence [2]: very good herbicidal action

Cc1cc(C)nc(NC(=O)NS(=O)(=O)c2c(I)cccc2OC(C)C(F)(F)F)n1 (centres unmarked) [Compound 1.364]
herbicidal action against weed plants, pre-emergence [1]: very good herbicidal action | herbicidal action against weed plants, post-emergence [2]: very good herbicidal action

COc1cc(Cl)nc(NC(=O)NS(=O)(=O)c2c(I)cccc2OC(C)C(F)(F)F)n1 (centres unmarked) [Compound 1.365]
herbicidal action against weed plants, pre-emergence [1]: very good herbicidal action | herbicidal action against weed plants, post-emergence [2]: very good herbicidal action

Cc1cc(C)nc(NC(=O)NS(=O)(=O)c2c(I)cccc2OC(F)(F)F)n1 [Compound 1.310]
herbicidal action against weed plants, pre-emergence [1]: very good herbicidal action | herbicidal action against weed plants, post-emergence [2]: very good herbicidal action

COc1nc(NC(=O)NS(=O)(=O)c2c(I)cccc2OC(C)C(F)(F)F)nc(OC)n1 (centres unmarked) [Compound 1.366]
herbicidal action against weed plants, pre-emergence [1]: very good herbicidal action | herbicidal action against weed plants, post-emergence [2]: very good herbicidal action

COc1cc(Cl)nc(NC(=O)NS(=O)(=O)c2c(I)cccc2SC)n1 [Compound 1.551]
herbicidal action against weed plants, pre-emergence [1]: very good herbicidal action | herbicidal action against weed plants, post-emergence [2]: very good herbicidal action

COc1nc(C)nc(NC(=O)NS(=O)(=O)c2c(I)cccc2OC(F)F)n1 [Compound 1.325]
herbicidal action against weed plants, pre-emergence [1]: very good herbicidal action | herbicidal action against weed plants, post-emergence [2]: very good herbicidal action

COc1nc(NC(=O)NS(=O)(=O)c2c(I)cccc2OCC2CC2)nc(OC)n1 [Compound 1.242]
herbicidal action against weed plants, pre-emergence [1]: very good herbicidal action | herbicidal action against weed plants, post-emergence [2]: very good herbicidal action

COc1ccc(Cl)c(I)c1S(=O)(=O)NC(=O)Nc1nc(C)cc(C)n1 [Compound 1.600]
herbicidal action against weed plants, pre-emergence [1]: very good herbicidal action | herbicidal action against weed plants, post-emergence [2]: very good herbicidal action

COc1nc(C)nc(NC(=O)NS(=O)(=O)c2c(OC)ccc(Cl)c2I)n1 [Compound 1.599]
herbicidal action against weed plants, pre-emergence [1]: very good herbicidal action | herbicidal action against weed plants, post-emergence [2]: very good herbicidal action

CCOc1cccc(I)c1S(=O)(=O)NC(=O)Nc1nc(C)nc(OC)n1 [Compound 1.165]
herbicidal action against weed plants, pre-emergence [1]: very good herbicidal action | herbicidal action against weed plants, post-emergence [2]: very good herbicidal action

CCOc1cccc(I)c1S(=O)(=O)NC(=O)Nc1nc(OC)cc(OC)n1 [Compound 1.164]
herbicidal action against weed plants, pre-emergence [1]: very good herbicidal action | herbicidal action against weed plants, post-emergence [2]: very good herbicidal action

CCCOc1cccc(I)c1S(=O)(=O)NC(=O)Nc1nc(C)cc(C)n1 [Compound 1.173]
herbicidal action against weed plants, pre-emergence [1]: very good herbicidal action | herbicidal action against weed plants, post-emergence [2]: very good herbicidal action

COc1nc(C)nc(NC(=O)NS(=O)(=O)c2c(I)cccc2OCC(F)F)n1 [Compound 1.352]
herbicidal action against weed plants, pre-emergence [1]: very good herbicidal action | herbicidal action against weed plants, post-emergence [2]: very good herbicidal action

CCOc1cccc(I)c1S(=O)(=O)NC(=O)Nc1nc(C)cc(C)n1 [Compound 1.166]
herbicidal action against weed plants, pre-emergence [1]: very good herbicidal action | herbicidal action against weed plants, post-emergence [2]: very good herbicidal action

Cc1cc(C)nc(NC(=O)NS(=O)(=O)c2c(I)cccc2OC(F)F)n1 [Compound 1.329]
herbicidal action against weed plants, pre-emergence [1]: very good herbicidal action | herbicidal action against weed plants, post-emergence [2]: very good herbicidal action

COc1cc(Cl)nc(NC(=O)NS(=O)(=O)c2c(I)cccc2OCC(F)(F)C(F)(F)F)n1 [Compound 1.372]
herbicidal action against weed plants, pre-emergence [1]: very good herbicidal action | herbicidal action against weed plants, post-emergence [2]: very good herbicidal action

COc1cc(Cl)nc(NC(=O)NS(=O)(=O)c2c(I)cccc2C(F)(F)F)n1 [Compound 1.100]
herbicidal action against weed plants, pre-emergence [1]: very good herbicidal action | herbicidal action against weed plants, post-emergence [2]: very good herbicidal action

COc1nc(NC(=O)NS(=O)(=O)c2c(I)cccc2OCC(F)(F)C(F)(F)F)nc(OC)n1 [Compound 1.373]
herbicidal action against weed plants, pre-emergence [1]: very good herbicidal action | herbicidal action against weed plants, post-emergence [2]: very good herbicidal action

Cc1cc(C)nc(NC(=O)NS(=O)(=O)c2c(I)cccc2OS(C)(=O)=O)n1 [Compound 1.471]
herbicidal action against weed plants, pre-emergence [1]: very good herbicidal action | herbicidal action against weed plants, post-emergence [2]: very good herbicidal action

COc1cc(OC)nc(NC(=O)NS(=O)(=O)c2c(F)cccc2I)n1 [Compound 1.001]
herbicidal action against weed plants, pre-emergence [1]: very good herbicidal action | herbicidal action against weed plants, post-emergence [2]: very good herbicidal action

COc1nc(C)nc(NC(=O)NS(=O)(=O)c2c(I)cccc2C(F)(F)F)n1 [Compound 1.095]
herbicidal action against weed plants, pre-emergence [1]: very good herbicidal action | herbicidal action against weed plants, post-emergence [2]: very good herbicidal action
